Test results as given in patent publication US20250129146A1, “COMBINED CANCER THERAPY WITH AN EPITHELIAL CELL ADHESION MOLECULE (EPCAM) INHIBITOR AND A WNT INHIBITOR” (ACADEMIA SINICA, priority 2021, published 2025).
“Also recorded” adds a separate entry of the source.

Columns and labels:
[1] = system: Wnt receptors (FZD6/7, LRP5/6); test: Wnt receptor protein and mRNA expression (western blot, qPCR); assay type: cell-based, human; conditions: HCT116 cells; EpAb2-6, LGK974 or combination
Experimental: (§1) For western blotting, cells were extracted using radioimmunoprecipitation assay (RIPA) buffer [(0.01 M sodium phosphate, pH 7.2), 150 mM NaCl, 2 mM EDTA, 50 mM NaF, 1% Nonidet P-40, 1% sodium deoxycholate, and 0.1% SDS)] containing phosphatase inhibitor (Roche) and protease inhibitor (Roche) cocktail. Equal amounts of protein were separated by SDS-PAGE and then transferred to PVDF membranes. The membranes were blocked with 3% BSA in TBST (Blocking solution) and incubated with necessary primary antibodies in the blocking solution overnight at 4° C. Membranes were then incubated with HRP-conjugated secondary antibodies in the blocking solution for 1 h at room temperature, and protein expression were detected. Antibodies used: anti-α-tubulin (Sigma), anti-EpCAM (abeam), anti-Active β-Catenin (Millipore), anti-total β-Catenin (abeam), anti-Frizzled 6 (CST), anti-Frizzled 7 (Santa Cruz Biotech), anti-LRP5 (abcam), anti-Phospho-LRP5 (abcam), anti-Phospho-LRP6 (CST), anti-LRP6 (CST) and anti-EpEX antibody EpAb3-5 (Produced in house), anti-ADAM17 (abcam), anti-phopho-ADAM17 (abcam), anti-Presenilin2 (abcam), anti-phospho-Presenilin2 (S327) (abcam), anti-phospho-Presenilin2 (S330) (abcam) and anti-Axin2 (CST).
(§2) Total RNA was extracted using TRI reagent and 5 μg of the total RNA was further reverse-transcribed using oligo (dT) primer with reverse transcriptase. Quantitative real time RT-PCR (qPCR) was performed on cDNA using the Light Cycler 480 SYBR Green-I Master kit and the LightCycler480 System. The gene expression levels of each sample were normalized to the expression levels of glyceraldehyde 3-phosphate dehydrogenase (GAPDH) or β-actin.

[2] = system: HCT116, HT29 and SW620 cells; test: Tumorsphere assay; assay type: cell-based, human
Experimental: Cells were seeded in ultra-low adherent 6-well plates (5×10^4 cells per well) or 24-well plates (1×10^3 cells per well) and maintained in DMEM/F-12 supplemented with B27. Further, cells were treated with 20 μg/mL mEpAb2-6, hEpAb2-6 or MT201 (Produced in house), or 400 ng/mL LGK974 (MedChemExpress) or the combination, by direct addition to the culture medium. The entire culture medium, including the treatment component, was changed in every other day. Cells were cultured for 10 days, and on 10th day, spheres were counted and photographed under the microscope.

[3] = dose of 5 mg/kg body weight; cited from earlier work
HCT116 cells [4] = test: Metastatic animal model of human CRC (HCT116 cells via tail vein); assay type: in vivo, NOD/SCID mice
Experimental: (§3) All animal experiments were approved and performed according to the regulations from the IACUC at Academia Sinica. HCT116 cells (1×10^6) were injected via tail vein for the metastatic model. Otherwise, 2×10^5 HCT116 cells with luciferase were surgically transplanted into the cecum wall for the orthotopic model. Male NOD/SCID mice, approximately 6 to 8 weeks old, were used for animal experiments (n=5 and n=6 for each treatment group in metastatic and orthotopic models respectively). At 72-h post-injection/transplantation, mice were randomly distributed into four different treatment groups. For the treatments, animals were injected with 20 mg/kg IgG or EpAb2-6 via tail vein twice a week for four weeks, or fed by oral gavage with either vehicle [0.5% methylcellulose (Sigma-Aldrich) and 0.5% Tween80 (Sigma-Aldrich)] or 5 mg/kg LGK974 (MedChemExpress) formulated with the vehicle on alternating days for four weeks, or animals were treated with the combination of both inhibitor and antibody. For the metastatic model, survival was the main endpoint. For the orthotopic model, tumor progression was monitor using bioluminescence imaging. To image the tumors, intraperitoneal injection of D-Luciferin (GOLD BIO) was performed, and images were taken 10 min post-injection.

HCT116 cells [5] = test: Orthotopic animal model of human CRC (HCT116 cells with luciferase in cecum wall); assay type: in vivo, NOD/SCID mice
Experimental: as §3

Oct4, Sox2 and c-Myc = test: Stemness (pluripotency) factor expression (western blot, qPCR); assay type: cell-based, human; conditions: HT29 cells; LGK974, EpAb2-6 or combined treatment
Experimental: as §1, §2

LRP5/6 = test: Phosphorylation of LRP5/6 (western blot); assay type: cell-based, human; conditions: SW620 cells; LGK974, EpAb2-6 or combined treatment
Experimental: as §1

HT29 and SW620 cells = test: Colony formation assay; assay type: cell-based, human
Experimental: Cells were seeded in 12-well plate (5×10^3 cells per well) and treated with 20 µg/mL mEpAb2-6, hEpAb2-6 or MT201 (Produced in house) or 400 ng/mL LGK974 (MedChemExpress) or combination as indicated in which case the elements were directly added to the culture medium. The medium along with the treatment component were changed in every alternating day and the cells were allowed to grow for 10 days. On the tenth day, cells were washed and fixed with 4% paraformaldehyde and further stained with 1% crystal violet for 30 min. Colonies were washed 3 times with PBS, and images were taken. Furthermore, to measure colony density, the wells were incubated with 0.5% SDS shaking for 2 h at RT. The supernatants were collected, and the absorbance of the solution was taken at 570 nm using a microplate reader.

[6] = system: colon cancer cells (SW620, HCT116); test: Annexin-V/PI apoptosis assay; assay type: cell-based, human; conditions: SW620 and HCT116 cells; 20 μg/mL EpAb2-6, LGK974 or the combination for 24 hrs
Experimental: Cells were seeded in 24-well plate ([…] cells per well) overnight and then treated with 20 μg/mL mEpAb2-6, hEpAb2-6 or MT201, or […] LGK974 (MedChemExpress) or the combination for 24 hrs. Cell pellets were collected, and an apoptosis assay was performed using an Annexin-V/PI apoptosis kit (BD Biosciences). Results were read by flow cytometry analysis percentage apoptotic cells was calculated.

active β-Catenin = test: Nuclear translocation of β-Catenin (immunofluorescence staining; cell fractionation with western blot); assay type: cell-based, human; conditions: wild-type HCT116 cells; 20 μg/mL EpAb2-6 for 6 h, 400 ng/mL LGK974 for 9 h or combination
Experimental: Cells (1×10^6) were seeded overnight and further allowed to grow in serum free conditions. Then cells were further treated with 20 μg/mL mEpAb2-6 or hEpAb2-6 or MT201 for 6 h or with 400 ng/mL LGK974 (MedChemExpress) for 9 h or combination as indicated. Samples were fractioned into cytosol and nuclear extracts using nuclear/cytosol fractionation kit (Biovision) according to the manufacturer's protocol. The fractions were then subjected to western blot analysis.
as §1
Glass slides were used in 24-well plates and coated with 0.1% gelatin. Further, 3×10^4 cells were seeded in serum free medium overnight. Cells were treated with 20 μg/mL EpAb2-6 for 6 h, or 400 ng/mL LGK974 (MedChemExpress) for 9 h or the combination. Cells were washed using ice-cold PBS and fixed with 4% paraformaldehyde for 15 min at RT and washed with ice-cold PBS. Further, cells were permeabilized using 0.1% triton-X in PBS for 20 min and subsequently washed with PBS. Cells were blocked with 3% BSA in PBS for 1 h at RT. Next, cells were treated with primary antibody anti-Active β-Catenin (Millipore) overnight. Then, cells were washed and treated with secondary antibody in 3% BSA containing PBS along with DAPI for 1 h at RT. Samples were then washed in PBS five times and mounted for microscopy. Nuclear β-Catenin intensities were calculated using IMARIS (Oxford Instruments) software.

[7] = EpCAM-knockout cells, exogenous EpEX, LGK974 or both

Question: Which “expression of Wnt receptors” value [1] does the source give for `Cc1cc(-c2ncc(CC(=O)Nc3ccc(-c4cnccn4)cn3)cc2C)ccn1` [LGK974, 2-(2′,3-dimethyl-[2,4′-bipyridin]-5-yl)-N-(5-(pyrazin-2-yl)pyridin-2-yl)acetamide, reference compound] here?
Answer: The value was “partially decrease”.

Question: And the tumorsphere formation [2, 7]?
Answer: Its tumorsphere formation is “complete loss of ability to form spheres or colonies”.

Question: And the tumorsphere formation ([2]; HCT116 and HT29 cells, 20 μg/mL EpAb2-6, 400 ng/mL LGK974 or combination, 10 days)?
Answer: The tumorsphere formation was “decreased”.

Question: What about the cancer stemness properties ([2]; summary statement, CRC cells, tumorsphere and colony formation) of the same molecule?
Answer: Its cancer stemness properties is “partially attenuate cancer sternness properties”.

Question: What about the toxicity [3] of the same molecule?
Answer: Its toxicity is “non-toxic”.

Question: What about the animal survival (HCT116 cells [4]; 20 mg/kg EpAb2-6 via tail vein twice a week, 5 mg/kg LGK974 oral gavage on alternating days, four weeks) of the same molecule?
Answer: Its animal survival is “decreased overall survival”.

Question: And the distant metastases (HCT116 cells [4]; autopsies)?
Answer: Its distant metastases is “distinct metastases; also recorded: found to have distant metastases”.

Question: And the “body weight after cessation of treatment” value (HCT116 cells [5]; orthotopic model)?
Answer: Its value is “continued to lose body weight”.

Question: What about the “median / overall survival” value (HCT116 cells [5]; orthotopic model) of the same molecule?
Answer: Its value is “low median survival”.

Question: What about the “body weight during the treatment period” value (HCT116 cells [5]; orthotopic model, 5 mg/kg LGK974) of the same molecule?
Answer: Its value is “decreased during the treatment period”.

Question: And the “tumor progression (bioluminescence)” value (HCT116 cells [5]; orthotopic model, 20 mg/kg EpAb2-6 via tail vein twice a week, 5 mg/kg LGK974 oral gavage on alternating days, four weeks)?
Answer: Its value is “developed significant tumors”.

Question: And the “tumor (cancer) progression in animal models” value (HCT116 cells [5]; summary statement, metastatic and orthotopic animal models of human CRC)?
Answer: The value was “did not observe significant effects”.

Question: What about the “expression of pluripotency factors” value (Oct4, Sox2 and c-Myc) of the same molecule?
Answer: Its value is “decreased pluripotency factor expressions”.

Question: And the LRP5/6 phosphorylation (LRP5/6)?
Answer: Its LRP5/6 phosphorylation is “could decrease LRP5/6 phosphorylation”.

Question: And the colony formation (HT29 and SW620 cells; [7])?
Answer: Its colony formation is “complete loss of ability to form spheres or colonies”.

Question: And the colony formation (HT29 and SW620 cells; HT29 cells, 20 µg/mL EpAb2-6, 400 ng/mL LGK974 or combination, 10 days)?
Answer: Its colony formation is “decreased”.

Question: And the induction of apoptosis [6]?
Answer: The induction of apoptosis was “did not observe significant effects”.

Question: And the “nuclear β-Catenin” value (active β-Catenin)?
Answer: The value was “decreased nuclear D3-Catenin but did not completely clear the protein from the nucleus”.
